From ChEMBL document CHEMBL1157784, “Antitumor activity and COMPARE analysis of bis-indole derivatives” (Bioorg Med Chem, 2010) come the findings set out here.

The term GI50 denotes the concentration giving 50% growth inhibition. A high value points to lower sensitivity of the cells. The term TGI denotes the concentration at which net growth stops. Low values mean more potent growth arrest, high ones less potent growth arrest. As a reminder, the LC50 is the concentration lethal to half of the exposed cells or organisms. Higher therefore signals lower toxicity.

Structures are written as SMILES. Structures can show the parent of a compound that is named as a salt.

What all share (assay type): functional
The test system of one test is NSCLC. Put plainly: Growth inhibition of human NSCLC cell by NCI-CLS assay.
The nature of test [1]: Growth inhibition of human ovarian cancer cell by NCI-CLS assay. Conditions: Cancer cell lines; for CC50: read-out: LC50 (the source's name).
The nature of test [2]: Growth inhibition of human CNS cancer cell by NCI-CLS assay. The settings on record: Cancer cell lines; for CC50: read-out: LC50 (the source's name).
Test [3] is described as follows: Growth inhibition of human prostate cancer cell by NCI-CLS assay. Conditions: Cancer cell lines; for CC50: read-out: LC50 (the source's name).
A short description of test [4]: Growth inhibition of human melanoma cell by NCI-CLS assay. Conditions: for CC50: read-out: LC50 (the source's name).
Test [5] is described as follows: Growth inhibition of human leukemia cell by NCI-CLS assay.
Test [6] is described as follows: Growth inhibition of human breast cancer cell by NCI-CLS assay. The settings on record: Cancer cell lines; for CC50: read-out: LC50 (the source's name).
Test [7] is described as follows: Growth inhibition of human renal cancer cell by NCI-CLS assay. The settings on record: Cancer cell lines; for CC50: read-out: LC50 (the source's name).
Test [8] can be described thus: Growth inhibition of human colon cancer cell by NCI-CLS assay. Conditions: Cancer cell lines.

For the compound `COc1ccc2c(c1)/C(=C\c1ccccc1/C=C1/C(=O)Nc3ccc(OC)cc31)C(=O)N2`, the GI50 with NSCLC is 14.1 µM; in test [1], 14.1 µM; in [2], 14.1 µM; in test [3] it was 14.4 µM; in test [4], 13.8 µM; in test [5], 5.4 µM. The 50% growth inhibitory concentration (GI50) in test [6] is 7.8 µM; in test [7], 21.4 µM; in test [8], 7.8 µM. In addition, the TGI in the test on NSCLC worked out at 87.1 µM; in test [2], 72.4 µM; in [3], 58.9 µM; in test [4], 91.2 µM; in test [7] it was 79.4 µM; in test [8] it was 87.1 µM.

With `Cc1[nH]c(C)c(/C=C2/C(=O)Nc3ccc(F)cc32)c1/C=C1/C(=O)Nc2ccc(F)cc21`, the 50% growth inhibitory concentration (GI50) worked out at 7.8 µM with NSCLC; 8.1 µM in [1]; 3.4 µM in test [2]; 7.9 µM in test [3]; 5.1 µM in test [4]; 2.4 µM in [5]. Besides, the 50% growth inhibitory concentration (GI50) in test [6] is 4.9 µM; in test [7], 9.1 µM; in [8] it was 5 µM. The LC50 in the test with NSCLC came to 74.1 µM; in [5] it was 37.1 µM; in test [8] it was 53.7 µM. Also, the total growth inhibition concentration (TGI) in the test with NSCLC was found to be 25.1 µM; in test [1], 25.7 µM; in [2] it was 13.2 µM; in [3] it was 20.4 µM; in [4], 18.2 µM; in [5], 9.1 µM. The total growth inhibition concentration (TGI) worked out at 22.4 µM in [6], 32.4 µM in test [7] and 17 µM in test [8]. Further, the CC50 in test [1] was determined as 72.4 µM; in test [2], 46.8 µM; in [3] it was 44.7 µM; in test [4], 52.5 µM; in test [6] it was 70.8 µM; in test [7], 75.9 µM.

As for `O=C1Nc2cccc(F)c2C1=Cc1cccc(C=C2C(=O)Nc3cccc(F)c32)n1`, the GI50 with NSCLC came to 2 µM; in test [1], 1.6 µM; in test [2] it was 1.1 µM; in [3], 1.4 µM; in test [4] it was 0.9 µM; in test [5] it was 0.8 µM. Besides, the GI50 in [6] was determined as 0.8 µM; in [7], 1.1 µM; in test [8], 0.7 µM. Besides, the TGI in the test with NSCLC was found to be 10.2 µM; in test [1] it was 8.5 µM; in test [2], 5.7 µM; in test [3], 12.9 µM; in test [4] it was 2.8 µM; in test [5], 9.8 µM. Also, the values for the total growth inhibition concentration (TGI) in test [6], in [7] and in [8] were 10 µM, 3.8 µM and 3.3 µM, respectively.

In the case of `O=C1Nc2cccc(Cl)c2/C1=C\c1ccc2ccc3ccc(/C=C4/C(=O)Nc5cccc(Cl)c54)nc3c2n1`, the GI50 in the test on NSCLC was 25.7 µM; in test [1], 6.2 µM; in test [2], 7.4 µM; in [3], 3.8 µM; in test [4], 13.2 µM; in test [5], 1.1 µM. Besides, the GI50 in [6] came out at 14.4 µM; in test [7], 9.5 µM; in test [8], 3.9 µM. In addition, the TGI in the test on NSCLC stood at 79.4 µM; in test [1], 30.9 µM; in test [2], 34.7 µM; in test [3] it was 31.6 µM; in test [4], 42.7 µM; in [5], 30.2 µM. The TGI was found to be 70.8 µM in [6], 58.9 µM in [7] and 30.9 µM in test [8]. Further, the CC50 in [1] turned out to be 70.8 µM; in [2] it was 77.6 µM; in [3], 79.4 µM; in test [4], 61.7 µM; in test [6], 93.3 µM; in test [7], 97.7 µM. The same compound displayed an LC50 in test [8] of 79.4 µM.

On to `O=Cc1cccc(/C=C2/C(=O)Nc3c2ccc2ccccc32)n1`, for which the GI50 in the test with NSCLC turned out to be 14.4 µM; in test [1], 8.7 µM; in test [2] it was 11.2 µM; in [3], 5.7 µM; in test [4], 11.5 µM; in [5], 2.5 µM. The figures for the GI50 in test [6], in [7] and in test [8] were 6.2 µM, 10.7 µM and 9.5 µM, respectively. In addition, the 50% lethal concentration (LC50) amounted to 85.1 µM in the test on NSCLC and 83.2 µM in test [8]. The concentration for total growth inhibition (TGI) was 37.1 µM in the test on NSCLC; 30.9 µM in test [1]; 33.9 µM in [2]; 33.1 µM in test [3]; 35.5 µM in [4]; 7.6 µM in [5]. Besides, the concentration for total growth inhibition (TGI) was found to be 45.7 µM in test [6], 26.9 µM in test [7] and 44.7 µM in test [8]. Moreover, the CC50 was found to be 72.4 µM in test [1]; 91.2 µM in [2]; 97.7 µM in [3]; 72.4 µM in test [4]; 79.4 µM in [6]; 74.1 µM in [7].

As to `O=C1Nc2cccc(I)c2/C1=C\c1cccc(/C=C2/C(=O)Nc3cccc(I)c32)n1`, the concentration for 50% growth inhibition (GI50) was 1.3 µM in the test with NSCLC; 1.1 µM in test [1]; 1.2 µM in test [2]; 0.6 µM in [3]; 1 µM in test [4]; 0.9 µM in test [5]. Besides, the GI50 in test [6] stood at 0.8 µM; in [7], 0.9 µM; in test [8] it was 0.5 µM. In addition, the results for the LC50 (in the test on NSCLC; in test [8]) were 21.9 µM and 7.6 µM, respectively. Moreover, the concentration for total growth inhibition (TGI) with NSCLC worked out at 5 µM; in [1], 5.6 µM; in test [2] it was 4 µM; in test [3], 2.2 µM; in [4] it was 3.2 µM; in test [5], 30.9 µM. Besides, the TGI turned out to be 4.4 µM in [6], 2.6 µM in test [7] and 1.9 µM in [8]. Moreover, the CC50 came to 22.4 µM in [1]; 13.8 µM in test [2]; 24 µM in test [3]; 13.5 µM in test [4]; 21.9 µM in test [6]; 8.3 µM in test [7].

`COc1ccc2c(c1)/C(=C\c1cc(OC)c(O)c(-c3cc(/C=C4/C(=O)Nc5ccc(OC)cc54)cc(OC)c3O)c1)C(=O)N2`: the GI50 with NSCLC was found to be 21.9 µM; in [1] it was 15.1 µM; in test [2], 6.8 µM; in [3], 10.5 µM; in test [4], 10.7 µM; in test [5] it was 6.9 µM. Further, the concentration for 50% growth inhibition (GI50) in [6] came to 13.8 µM; in [7], 20.9 µM; in [8], 10.5 µM. The TGI is 95.5 µM with NSCLC; 87.1 µM in test [2]; 93.3 µM in [4]; 89.1 µM in test [5]; 95.5 µM in [7]; 75.9 µM in test [8].

Regarding `O=C1Nc2c(ccc3ccccc23)/C1=C\c1cccc(/C=C2/C(=O)Nc3c2ccc2ccccc32)n1`, the GI50 amounted to 24 µM in the test with NSCLC; 19 µM in test [1]; 15.8 µM in test [2]; 21.9 µM in [3]; 13.8 µM in test [4]; 1.5 µM in test [5]. The concentration for 50% growth inhibition (GI50) in test [6] is 17.8 µM; in test [7], 17 µM; in test [8] it was 14.4 µM. Also, the 50% lethal concentration (LC50) is 89.1 µM in the test with NSCLC, 77.6 µM in [5] and 83.2 µM in test [8]. Further, the concentration for total growth inhibition (TGI) stood at 57.5 µM in the test with NSCLC; 56.2 µM in test [1]; 49 µM in test [2]; 81.3 µM in test [3]; 38 µM in test [4]; 10 µM in test [5]. Moreover, the concentration for total growth inhibition (TGI) in test [6] is 69.2 µM; in test [7], 41.7 µM; in test [8], 44.7 µM. The CC50 came to 91.2 µM in [1]; 85.1 µM in test [2]; 77.6 µM in test [4]; 97.7 µM in test [6]; 79.4 µM in test [7].

For the compound `COc1ccc(OC)c2c1NC(=O)/C2=C/c1cccc(/C=C2/C(=O)Nc3c(OC)ccc(OC)c32)n1`, the concentration for 50% growth inhibition (GI50) in the test with NSCLC came to 0.9 µM; in test [1] it was 0.8 µM; in test [2] it was 0.7 µM; in [3] it was 0.5 µM; in test [4], 0.7 µM; in [5] it was 0.4 µM. Moreover, the GI50 in test [6] is 0.7 µM; in test [7], 0.7 µM; in [8] it was 0.5 µM. The LC50 was determined as 85.1 µM in the test with NSCLC, 64.6 µM in test [5] and 22.4 µM in test [8]. The total growth inhibition concentration (TGI) was 18.6 µM in the test with NSCLC; 11.2 µM in [1]; 3.6 µM in test [2]; 3.4 µM in [3]; 2.2 µM in test [4]; 8.7 µM in test [5]. Moreover, the TGI in test [6] was found to be 17.4 µM; in [7] it was 2.5 µM; in test [8], 1.9 µM. Besides, the CC50 in test [1] was 27.5 µM; in test [2], 21.9 µM; in test [3], 25.1 µM; in test [4], 13.5 µM; in test [6], 60.3 µM; in test [7], 18.2 µM.

`CC[C@]1(O)C[C@H]2CN(CCc3c([nH]c4ccccc34)[C@@](C(=O)OC)(c3cc4c(cc3OC)N(C=O)[C@H]3[C@@](O)(C(=O)OC)[C@H](OC(C)=O)[C@]5(CC)C=CCN6CC[C@]43[C@@H]65)C2)C1` [VINCRISTINE SULFATE]: the 50% growth inhibitory concentration (GI50) with NSCLC was determined as 0.2 µM; in test [1], 0.3 µM; in [2] it was 0.1 µM; in test [3], 0.1 µM; in test [4], 0.2 µM; in test [5], 0.1 µM. Further, the 50% growth inhibitory concentration (GI50) stood at 0.3 µM in test [6], 0.3 µM in test [7] and 0.1 µM in test [8]. Also, the concentration for total growth inhibition (TGI) amounted to 15.8 µM in the test on NSCLC; 19.9 µM in [1]; 6.3 µM in test [2]; 6.3 µM in test [3]; 7.9 µM in test [4]; 15.8 µM in test [5]. The TGI amounted to 7.9 µM in test [6], 19.9 µM in test [7] and 4 µM in test [8].
